Experiments:
Format in all cases: biochemical
[1] = target: T1, cytochrome bd (G. thermodenitrificans) (Geobacillus stearothermophilus, UniProt Q9Z9N1); assay: O2 consumption inhibition, Clark-type electrode; details: menaquinol-1 substrate (200 μM quinone, 10 mM DTT); 0.025% DDM, pH 7.5, 37 °C; no cardiolipin
T1 construct: gene cbdA; CbdAB expressed from pSTE-cbdAB in G. thermodenitrificans K1041, purified from membranes in MEGA9+10
T1 sequence (Q9Z9N1 1-448): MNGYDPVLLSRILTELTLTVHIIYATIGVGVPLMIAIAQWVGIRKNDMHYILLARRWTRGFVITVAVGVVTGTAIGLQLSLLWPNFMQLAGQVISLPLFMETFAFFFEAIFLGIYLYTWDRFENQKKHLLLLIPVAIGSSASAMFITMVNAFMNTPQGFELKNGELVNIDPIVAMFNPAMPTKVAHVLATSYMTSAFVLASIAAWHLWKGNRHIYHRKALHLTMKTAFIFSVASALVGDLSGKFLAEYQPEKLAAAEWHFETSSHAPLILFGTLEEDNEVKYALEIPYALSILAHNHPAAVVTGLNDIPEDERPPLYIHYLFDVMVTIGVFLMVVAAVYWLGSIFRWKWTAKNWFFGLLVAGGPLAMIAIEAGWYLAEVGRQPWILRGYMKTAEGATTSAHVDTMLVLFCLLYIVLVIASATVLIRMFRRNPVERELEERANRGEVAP
T1 sequence (Q9Z9N0 1-342 partner): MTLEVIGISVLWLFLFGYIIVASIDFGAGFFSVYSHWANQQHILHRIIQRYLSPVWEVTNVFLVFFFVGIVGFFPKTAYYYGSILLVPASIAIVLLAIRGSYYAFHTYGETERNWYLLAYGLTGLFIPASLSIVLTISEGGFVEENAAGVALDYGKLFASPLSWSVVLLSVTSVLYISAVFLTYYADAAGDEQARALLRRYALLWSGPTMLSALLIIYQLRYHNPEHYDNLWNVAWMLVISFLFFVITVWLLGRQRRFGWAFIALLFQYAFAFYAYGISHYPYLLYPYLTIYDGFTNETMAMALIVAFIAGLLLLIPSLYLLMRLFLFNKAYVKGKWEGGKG

[2] = target: T2, cytochrome bd (C. glutamicum) (Corynebacterium glutamicum, UniProt Q9KWL8); assay: O2 consumption inhibition, Clark-type electrode; details: menaquinol-1 substrate (200 μM quinone, 10 mM DTT); 0.025% DDM, pH 7.5, 37 °C; no cardiolipin
T2 construct: gene cydA; expressed from pPC4-cydABDC in C. glutamicum delta-ctaD, purified from membranes in DDM (CydD and CydC are not oxidase subunits)

[3] = target: T1, cytochrome bd (G. thermodenitrificans); assay: O2 consumption, Clark-type electrode; details: 200 μM quinone, 10 mM DTT; 0.025% DDM, pH 7.5, 37 °C; no cardiolipin
[4] = target: T2, cytochrome bd (C. glutamicum); assay: O2 consumption, Clark-type electrode; details: 200 μM quinone, 10 mM DTT; 0.025% DDM, pH 7.5, 37 °C; no cardiolipin
cytochrome bd (E. coli) = target: T3, cytochrome bd (E. coli) (Escherichia coli, UniProt P0ABJ9); assay: O2 consumption activation, Clark-type electrode; details: activator; bovine heart lipid, mixed acyl chains (primarily linoleic acid); ubiquinol-1 substrate; 0.025% DDM, pH 7.5, 37 °C
T3 construct: gene cydA; CydABX complex, Strep-tag, expressed in E. coli MB43, streptactin-purified in DDM
T3 sequence (P0ABJ9 1-522): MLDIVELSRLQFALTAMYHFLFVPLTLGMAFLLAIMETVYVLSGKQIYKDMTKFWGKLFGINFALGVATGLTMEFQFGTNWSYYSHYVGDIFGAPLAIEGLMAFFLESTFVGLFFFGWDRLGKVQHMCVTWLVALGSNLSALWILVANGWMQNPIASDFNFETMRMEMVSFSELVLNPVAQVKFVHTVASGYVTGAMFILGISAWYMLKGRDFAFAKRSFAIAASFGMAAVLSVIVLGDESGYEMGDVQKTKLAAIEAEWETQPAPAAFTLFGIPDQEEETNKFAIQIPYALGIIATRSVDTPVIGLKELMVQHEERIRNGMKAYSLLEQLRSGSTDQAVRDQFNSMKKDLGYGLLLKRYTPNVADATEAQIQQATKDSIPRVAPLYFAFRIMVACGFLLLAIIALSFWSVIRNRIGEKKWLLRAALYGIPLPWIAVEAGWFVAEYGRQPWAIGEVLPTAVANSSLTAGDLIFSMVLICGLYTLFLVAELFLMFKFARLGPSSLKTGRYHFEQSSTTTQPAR
T3 sequence (P0ABK2 1-379 partner): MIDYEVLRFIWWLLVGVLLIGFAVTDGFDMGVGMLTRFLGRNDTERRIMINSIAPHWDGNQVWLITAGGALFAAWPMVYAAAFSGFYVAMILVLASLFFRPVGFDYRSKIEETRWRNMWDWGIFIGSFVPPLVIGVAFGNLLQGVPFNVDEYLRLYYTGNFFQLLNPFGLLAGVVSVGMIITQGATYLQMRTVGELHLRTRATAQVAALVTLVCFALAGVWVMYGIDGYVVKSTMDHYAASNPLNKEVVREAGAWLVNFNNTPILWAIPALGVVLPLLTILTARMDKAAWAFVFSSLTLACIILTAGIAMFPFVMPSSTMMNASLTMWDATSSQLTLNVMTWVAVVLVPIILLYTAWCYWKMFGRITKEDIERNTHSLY
T3 sequence (P56100 1-37 partner): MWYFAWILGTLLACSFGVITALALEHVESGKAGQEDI
From the text: O2 consumption activation, Clark-type electrode on cytochrome bd (E. coli) | We examined the effect of CL and observed ~ twofold activation of the oxygen consumption activity

For `CC(C)=CCC/C(C)=C/CC/C(C)=C/Cc1c(C)[nH]c2ccccc2c1=O` [aurachin D], the “inhibition at 400 nM” value [1] was “G. thermodenitrificans cytochrome bd was sensitive to inhibition by aurachin D” and the “inhibition at 400 nM” value [2] was “oxygen consumption activity in the presence and absence of CL was sensitive to inhibition by aurachin D”.

With `CC(C)=CCc1c(C)c(O)c2ccccc2c1O` [menaquinol-1] the “O2 consumption, Clark-type electrode” value [3] was “using menaquinol-1 instead of ubiquinol-1 as substrate” and the “O2 consumption, Clark-type electrode” value [4] was “using menaquinol-1 instead of ubiquinol-1 as substrate”.

cardiolipin [CL] was tested, and the “fold activation at 10 μM” value (cytochrome bd (E. coli)) was ~ 2 fold.

Reference: publication PMC8044227, “Cardiolipin enhances the enzymatic activity of cytochrome bd and cytochrome bo3 solubilized in dodecyl-maltoside” (Scientific Reports, 2021)
